The numbers were not newly measured in patent publication US20230115209A1, “[…] PSILOCIN CONTAINING COMPOSITIONS AND METHODS OF USING AND MAKING THE SAME” (Orthogonal Thinker, Inc., priority 2020, published 2023), which cites them from elsewhere.

For series [1] the following is noted: trace fear conditioning.
For series [2] the following is noted: in vivo.

Take `CN(C)CCc1c[nH]c2cccc(OP(=O)(O)O)c12` [Psilocybin, 4-phosphoryloxy-N,N-dimethyl-tryptamine]: the “extinction of the classically conditioned fear response” value in series [1] is on record as “facilitates extinction of the classically conditioned fear response”. For the same compound, the “global neural signal diversity” value in series [2] is listed as “increase global neural signal diversity”.
